Data reported in ChEMBL document CHEMBL1145368, “Directed molecular screening for RecA ATPase inhibitors” (Bioorg Med Chem Lett, 2007).
Calls of active or inactive are those of the source. The calls are words filed in the database; no cut-off is given here.

Tests used:
Escherichia coli [1] = experiment: (§1) Inhibition of Escherichia coli RecA by ADP-linked fluorescent ATPase assay
[2] = as §1
Escherichia coli [3] = experiment: Inhibition of RecA-mediated DNA strand exchange reaction assessed as abrogation of nicked circular dsDNA formation at 100 uM

Activity (Escherichia coli [1])	IC50 [2] [nM]	Activity (Escherichia coli [3])	SMILES
Active	–	–	O=S(=O)(O)c1cccc2c(-c3ccc(Nc4ccccc4)c4c(S(=O)(=O)O)cccc34)ccc(Nc3ccccc3)c12
–	2000	Active	Cc1ccc(C(=O)Nc2ccc(S(=O)(=O)O)c3cc(S(=O)(=O)O)cc(S(=O)(=O)O)c23)cc1NC(=O)c1cccc(NC(=O)Nc2cccc(C(=O)Nc3cc(C(=O)Nc4ccc(S(=O)(=O)O)c5cc(S(=O)(=O)O)cc(S(=O)(=O)O)c45)ccc3C)c2)c1 [SURAMIN]
Active	–	–	Nc1c(/N=N/c2ccc(-c3ccc(/N=N/c4cc(S(=O)(=O)O)c5ccccc5c4N)cc3)cc2)cc(S(=O)(=O)O)c2ccccc12
inactive	–	–	COc1cc(/C=C/C(=O)CC(=O)/C=C/c2ccc(O)c(OC)c2)ccc1O
